Results: publication PMC4503722, “Novel Phenotypic Outcomes Identified for a Public Collection of Approved Drugs from a Publicly Accessible Panel of Assays” (PLoS ONE, 2015)
Read-outs that look alike come from different tables or passages of the source.

What was measured:
[1] = system: nuclear β-catenin in C2C12 cells; experiment: cells; format: cell-based
Colo320 = experiment: cells; format: cell-based
[2] = system: HCT116 cells treated with a GSK3β inhibitor; experiment: cells; format: cell-based
hp70S6K1 (RPS6KB1) = target: T1, hp70S6K1 (RPS6KB1) (Homo sapiens, UniProt P23443); experiment: Cerep LANCE kinase assay hp70S6K1 (S1 assay 31); format: biochemical
T1 construct: purchased Cerep (LANCE kinase assay platform, contract assay)
T1 sequence (P23443 whole entry): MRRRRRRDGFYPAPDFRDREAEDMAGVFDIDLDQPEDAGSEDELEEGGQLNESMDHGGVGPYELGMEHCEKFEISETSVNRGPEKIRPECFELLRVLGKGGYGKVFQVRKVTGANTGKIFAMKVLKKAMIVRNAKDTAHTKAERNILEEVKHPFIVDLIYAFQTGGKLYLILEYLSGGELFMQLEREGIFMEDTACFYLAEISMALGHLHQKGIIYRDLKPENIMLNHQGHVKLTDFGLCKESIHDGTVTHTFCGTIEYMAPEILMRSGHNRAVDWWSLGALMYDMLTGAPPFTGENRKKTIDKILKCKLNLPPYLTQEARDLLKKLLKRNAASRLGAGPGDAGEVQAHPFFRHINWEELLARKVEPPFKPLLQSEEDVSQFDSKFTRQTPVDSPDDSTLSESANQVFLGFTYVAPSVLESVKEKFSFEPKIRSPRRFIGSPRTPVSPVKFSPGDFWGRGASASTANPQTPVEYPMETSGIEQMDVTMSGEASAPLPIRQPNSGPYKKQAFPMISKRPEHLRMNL

HeLa cells = experiment: cells; format: cell-based; settings: for EC50: read-out: CellCycle G2/M
HT-29 = experiment: cells; format: cell-based
SNU-C1 = experiment: cells; format: cell-based
NCI-H716 cells = experiment: cells; format: cell-based, Human
RKO = experiment: cells; format: cell-based
SW480 = experiment: cells; format: cell-based
hFLT3 = target: T2, hFLT3 (Homo sapiens, UniProt P36888); experiment: Cerep LANCE kinase assay hFLT3 (S1 assay 35); format: biochemical
T2 construct: purchased Cerep (LANCE kinase assay platform, contract assay)
T2 sequence (P36888 27-993): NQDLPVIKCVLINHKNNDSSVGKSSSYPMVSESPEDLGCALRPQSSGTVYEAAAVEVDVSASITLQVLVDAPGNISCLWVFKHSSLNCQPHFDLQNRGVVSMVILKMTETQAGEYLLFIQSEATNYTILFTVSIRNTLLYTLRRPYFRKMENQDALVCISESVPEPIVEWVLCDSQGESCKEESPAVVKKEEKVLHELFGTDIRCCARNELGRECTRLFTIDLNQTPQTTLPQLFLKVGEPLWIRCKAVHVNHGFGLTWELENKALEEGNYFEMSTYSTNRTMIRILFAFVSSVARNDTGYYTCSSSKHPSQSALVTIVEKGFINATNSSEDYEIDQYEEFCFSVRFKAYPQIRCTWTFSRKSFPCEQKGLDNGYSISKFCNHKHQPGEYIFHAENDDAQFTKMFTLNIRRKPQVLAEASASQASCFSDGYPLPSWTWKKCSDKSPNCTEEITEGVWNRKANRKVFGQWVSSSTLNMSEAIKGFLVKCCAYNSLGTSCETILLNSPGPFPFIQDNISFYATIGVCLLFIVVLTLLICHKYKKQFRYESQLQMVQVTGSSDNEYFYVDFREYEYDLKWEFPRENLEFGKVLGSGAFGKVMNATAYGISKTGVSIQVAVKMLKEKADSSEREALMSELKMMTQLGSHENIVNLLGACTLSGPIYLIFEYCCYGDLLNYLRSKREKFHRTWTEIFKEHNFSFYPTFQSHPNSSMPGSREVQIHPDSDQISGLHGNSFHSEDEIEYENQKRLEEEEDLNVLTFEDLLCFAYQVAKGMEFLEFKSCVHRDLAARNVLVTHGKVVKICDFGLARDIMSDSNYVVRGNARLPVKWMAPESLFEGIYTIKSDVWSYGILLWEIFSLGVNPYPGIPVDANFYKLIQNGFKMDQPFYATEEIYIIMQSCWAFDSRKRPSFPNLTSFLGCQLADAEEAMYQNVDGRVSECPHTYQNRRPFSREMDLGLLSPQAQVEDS

DLD-1 = experiment: cells; format: cell-based
hKDR = target: T3, hKDR (Homo sapiens, UniProt P35968); experiment: Cerep LANCE kinase assay hKDR (S1 assay 32); format: biochemical
T3 construct: purchased Cerep (LANCE kinase assay platform, contract assay)
T3 sequence (P35968 20-1356): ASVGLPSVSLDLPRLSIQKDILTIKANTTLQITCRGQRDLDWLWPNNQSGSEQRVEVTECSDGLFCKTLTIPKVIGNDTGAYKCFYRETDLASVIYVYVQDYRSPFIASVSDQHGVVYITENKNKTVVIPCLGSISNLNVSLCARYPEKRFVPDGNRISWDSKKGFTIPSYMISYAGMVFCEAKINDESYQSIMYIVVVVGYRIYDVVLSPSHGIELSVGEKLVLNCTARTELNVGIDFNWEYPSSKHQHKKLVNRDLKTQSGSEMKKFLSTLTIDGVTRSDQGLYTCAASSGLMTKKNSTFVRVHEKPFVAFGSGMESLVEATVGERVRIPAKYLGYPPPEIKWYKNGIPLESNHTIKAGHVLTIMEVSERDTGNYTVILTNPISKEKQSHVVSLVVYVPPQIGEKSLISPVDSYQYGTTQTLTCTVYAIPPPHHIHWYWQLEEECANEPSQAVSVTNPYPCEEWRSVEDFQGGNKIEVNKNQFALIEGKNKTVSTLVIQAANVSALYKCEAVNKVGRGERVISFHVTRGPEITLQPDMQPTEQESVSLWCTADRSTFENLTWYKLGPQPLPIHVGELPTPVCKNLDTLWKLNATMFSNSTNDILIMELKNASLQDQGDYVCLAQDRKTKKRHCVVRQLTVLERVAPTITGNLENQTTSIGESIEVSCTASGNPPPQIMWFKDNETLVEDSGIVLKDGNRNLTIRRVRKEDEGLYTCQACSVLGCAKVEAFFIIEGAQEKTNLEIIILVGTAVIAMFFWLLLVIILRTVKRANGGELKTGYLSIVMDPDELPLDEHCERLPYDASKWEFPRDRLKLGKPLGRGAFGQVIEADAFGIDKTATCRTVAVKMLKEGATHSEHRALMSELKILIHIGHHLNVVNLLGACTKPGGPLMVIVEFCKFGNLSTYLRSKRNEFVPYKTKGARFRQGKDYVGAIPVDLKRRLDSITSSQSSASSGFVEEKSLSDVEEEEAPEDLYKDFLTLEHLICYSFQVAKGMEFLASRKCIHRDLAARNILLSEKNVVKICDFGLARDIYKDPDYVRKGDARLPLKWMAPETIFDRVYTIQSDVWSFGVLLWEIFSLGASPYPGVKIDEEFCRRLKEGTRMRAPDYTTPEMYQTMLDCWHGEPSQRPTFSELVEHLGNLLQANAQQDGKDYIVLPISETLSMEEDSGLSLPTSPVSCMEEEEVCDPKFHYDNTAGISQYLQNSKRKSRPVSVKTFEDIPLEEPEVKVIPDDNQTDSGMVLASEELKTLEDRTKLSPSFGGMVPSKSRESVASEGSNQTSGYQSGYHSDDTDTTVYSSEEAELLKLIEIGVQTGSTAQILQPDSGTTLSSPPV

[3] = system: endothelial tube formation in co-cultures of ECFCs and ADSCs treated with VEGF; experiment: cells; format: cell-based, human
HCT116 = experiment: cells; format: cell-based
hGSK3b = target: T4, hGSK3b (Homo sapiens, UniProt P49841); experiment: Cerep LANCE kinase assay hGSK3b (S1 assay 34); format: biochemical
T4 construct: purchased Cerep (LANCE kinase assay platform, contract assay)
T4 sequence (P49841 whole entry): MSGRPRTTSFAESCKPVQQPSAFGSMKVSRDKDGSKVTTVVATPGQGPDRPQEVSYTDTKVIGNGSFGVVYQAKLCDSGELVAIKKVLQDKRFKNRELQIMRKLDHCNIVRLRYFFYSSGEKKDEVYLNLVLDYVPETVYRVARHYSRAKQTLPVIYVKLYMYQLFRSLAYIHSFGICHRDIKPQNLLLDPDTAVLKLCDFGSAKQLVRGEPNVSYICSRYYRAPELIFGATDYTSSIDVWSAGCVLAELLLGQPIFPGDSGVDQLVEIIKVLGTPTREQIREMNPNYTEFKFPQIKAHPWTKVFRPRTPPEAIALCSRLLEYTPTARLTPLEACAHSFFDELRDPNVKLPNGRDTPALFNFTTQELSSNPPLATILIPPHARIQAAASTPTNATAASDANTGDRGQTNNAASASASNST

hJAK2 = target: T5, hJAK2 (Homo sapiens, UniProt O60674); experiment: Cerep LANCE kinase assay hJAK2 (S1 assay 33); format: biochemical
T5 construct: purchased Cerep (LANCE kinase assay platform, contract assay)
T5 sequence (O60674 whole entry): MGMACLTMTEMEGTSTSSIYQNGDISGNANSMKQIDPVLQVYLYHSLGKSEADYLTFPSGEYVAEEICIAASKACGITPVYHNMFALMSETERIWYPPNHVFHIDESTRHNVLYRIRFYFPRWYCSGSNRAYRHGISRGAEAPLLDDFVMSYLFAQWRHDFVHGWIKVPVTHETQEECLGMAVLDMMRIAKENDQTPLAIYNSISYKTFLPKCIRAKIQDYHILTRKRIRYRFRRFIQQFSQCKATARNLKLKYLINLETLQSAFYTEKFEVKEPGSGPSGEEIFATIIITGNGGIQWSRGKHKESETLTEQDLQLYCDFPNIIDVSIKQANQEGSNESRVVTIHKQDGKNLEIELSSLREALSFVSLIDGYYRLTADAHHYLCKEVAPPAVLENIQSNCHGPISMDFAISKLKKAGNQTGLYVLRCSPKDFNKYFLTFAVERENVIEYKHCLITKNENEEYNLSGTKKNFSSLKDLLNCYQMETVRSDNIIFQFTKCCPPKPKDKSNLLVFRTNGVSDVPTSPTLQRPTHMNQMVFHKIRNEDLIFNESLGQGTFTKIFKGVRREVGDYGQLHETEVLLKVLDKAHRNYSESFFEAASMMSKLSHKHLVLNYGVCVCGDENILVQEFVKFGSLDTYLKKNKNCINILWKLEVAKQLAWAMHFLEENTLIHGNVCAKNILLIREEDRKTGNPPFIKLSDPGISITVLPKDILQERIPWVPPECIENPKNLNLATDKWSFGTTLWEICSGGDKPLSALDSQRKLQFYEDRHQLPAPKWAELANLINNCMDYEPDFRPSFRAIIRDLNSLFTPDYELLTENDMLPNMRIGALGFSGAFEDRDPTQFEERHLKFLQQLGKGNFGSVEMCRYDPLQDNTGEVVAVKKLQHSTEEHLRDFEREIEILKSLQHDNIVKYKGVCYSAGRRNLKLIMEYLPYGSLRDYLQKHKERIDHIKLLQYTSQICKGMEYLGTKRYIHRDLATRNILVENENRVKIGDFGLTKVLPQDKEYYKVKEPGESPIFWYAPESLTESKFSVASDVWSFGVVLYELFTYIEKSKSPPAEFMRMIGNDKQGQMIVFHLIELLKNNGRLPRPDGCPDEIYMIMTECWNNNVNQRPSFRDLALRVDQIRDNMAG

INS-1E cells = experiment: cells; format: cell-based, rat
[4] = Homo sapiens, HCT-116, read-out: GSK3b inh pretreated_Viability ATP HCT116

SMILES: CC(=O)Oc1ccc(C2(c3ccc(OC(C)=O)cc3)Oc3ccccc3NC2=O)cc1 [Bisoxatin diacetate]
- EC50 ([1]; read-out: Wnt Pathway): 14 µM
- IC50 (Colo320; read-out: Basal_Viability ATP Colo 320): > 20 µM
- IC50 ([2]; read-out: GSK3b inh pretreated_Viability ATP HCT116): 3.26 µM
- IC50 (hp70S6K1 (RPS6KB1); read-out: p70S6K1): > 20 µM
- EC50 (HeLa cells): > 10 µM
- IC50 (HT-29; read-out: Basal_Viability ATP HT-29): > 20 µM
- IC50 (SNU-C1; read-out: Basal_Viability ATP SNU-C1): > 20 µM
- EC50 (NCI-H716 cells; read-out: GLP 1 Secretion): > 10 µM
- IC50 (RKO; read-out: Basal_Viability ATP RKO): 9.23 µM
- IC50 (SW480; read-out: Basal_Viability ATP SW480): 9.19 µM
- IC50 (hFLT3; read-out: FLT3): > 20 µM
- IC50 (DLD-1; read-out: Basal_Viability ATP DLD-1): 19.7 µM
- IC50 (hKDR; read-out: KDR): > 20 µM
- IC50 ([3]; read-out: Anti-Angiogenesis): 2.27 µM
- IC50 (HCT116; read-out: Basal_Viability ATP HCT116): 2.42 µM
- IC50 (hGSK3b; read-out: GSK3b): > 20 µM
- IC50 (hJAK2; read-out: JAK2): > 20 µM
- EC50 (INS-1E cells; read-out: Insulin Secretion): > 20 µM

SMILES: Cn1cnc([N+](=O)[O-])c1Sc1ncnc2nc[nH]c12 [Azathioprine]
- EC50 ([1]; Mus musculus, C2C12, read-out: Wnt Pathway): > 10 µM
- IC50 (Colo320; Homo sapiens, COLO 320, read-out: Basal_Viability ATP Colo 320): 10.3 µM
- IC50 [2, 4]: 0.623 µM
- IC50 (hp70S6K1 (RPS6KB1)): > 20 µM
- EC50 (HeLa cells; Homo sapiens, HeLa): > 10 µM
- IC50 (HT-29; Homo sapiens, HT-29, read-out: Basal_Viability ATP HT-29): > 20 µM
- IC50 (SNU-C1; Homo sapiens, SNU-C1, read-out: Basal_Viability ATP SNU-C1): > 20 µM
- EC50 (NCI-H716 cells; Homo sapiens, NCI-H716, read-out: GLP 1 Secretion): > 10 µM
- IC50 (RKO; Homo sapiens, RKO, read-out: Basal_Viability ATP RKO): 2.66 µM
- IC50 (SW480; Homo sapiens, SW480, read-out: Basal_Viability ATP SW480): 9.44 µM
- IC50 (hFLT3): > 20 µM
- IC50 (DLD-1; Homo sapiens, DLD-1, read-out: Basal_Viability ATP DLD-1): 0.364 µM
- IC50 (hKDR): > 20 µM
- IC50 ([3]; Homo sapiens, read-out: Anti-Angiogenesis): > 10 µM
- IC50 (HCT116; Homo sapiens, HCT-116, read-out: Basal_Viability ATP HCT116): 0.207 µM
- IC50 (hGSK3b): > 20 µM
- IC50 (hJAK2): > 20 µM
- EC50 (INS-1E cells; Rattus norvegicus, INS-1E, read-out: Insulin Secretion): > 10 µM

SMILES: Cc1ccc2nc(N)[nH]c(=O)c2c1Sc1ccncc1 [nolatrexed, reference compound]
- EC50 ([1]; Mus musculus, C2C12, IC50 / EC50; C2C12 beta-catenin translocation; read-out: Wnt Pathway): 0.244 µM
- EC50 ([1]; Mus musculus, C2C12; read-out: Wnt pot. EC50): 0.24 µM
- IC50 (Colo320; Homo sapiens, COLO 320, Table 2, 72 h, Cell TiterGlo, non-adherent, 20 coded, read-out: Colo320 viab. IC50): > 20 µM
- IC50 ([2]; Homo sapiens, HCT-116, 72 h, read-out: HCT-116 (GSK3β) viab. IC50): 0.83 µM
- IC50 [2, 4]: 0.83 µM
- IC50 (hp70S6K1 (RPS6KB1); read-out: p70S6K1): 17.8 µM
- G2/M IC50 / EC50 (HeLa cells): 20 (values shown as 20 indicate that the compound was tested in concentration-response and showed no response at the highest concentration tested (e.g. IC50 > 20 μM))
- EC50 (HeLa cells; Homo sapiens, HeLa, IC50 / EC50, HeLa): > 10 µM
- IC50 (HT-29; Homo sapiens, HT-29; Table 2; 72 h, Cell TiterGlo, non-adherent; 20 coded; read-out: HT-29 viab. IC50): 4.7 µM
- IC50 (HT-29; Homo sapiens, HT-29; read-out: Basal_Viability ATP HT-29): 4.75 µM
- IC50 (SNU-C1; Homo sapiens, SNU-C1, 72 h, Table 2, 72 h, Cell TiterGlo, non-adherent, 20 coded, read-out: SNU-C1 viab. IC50): > 20 µM
- EC50 (NCI-H716 cells; Homo sapiens, NCI-H716; read-out: GLP1 sec. EC50): > 10 µM
- IC50 (RKO; Homo sapiens, RKO; Table 2; 72 h, Cell TiterGlo, non-adherent; 20 coded; read-out: RKO viab. IC50): 0.34 µM
- IC50 (RKO; Homo sapiens, RKO; read-out: Basal_Viability ATP RKO): 0.343 µM
- IC50 (SW480; Homo sapiens, SW480, 72 h, Table 2, 72 h, Cell TiterGlo, non-adherent, 20 coded, read-out: SW480 viab. IC50): 2.2 µM
- IC50 (SW480; Homo sapiens, SW480, basal, read-out: Basal_Viability ATP SW480): 2.24 µM
- IC50 (hFLT3; read-out: FLT3): > 20 µM
- IC50 (DLD-1; Homo sapiens, DLD-1, 72 h, read-out: DLD-1 viab. IC50): > 20 µM
- IC50 (hKDR; read-out: KDR): > 20 µM
- IC50 ([3]; Homo sapiens, IC50 / EC50; endothelial tube area, ADSC/ECFC co-culture; read-out: Anti-Angiogenesis): 7.37 µM
- IC50 ([3]; Homo sapiens; read-out: Anti-Angio IC50): 7.4 µM
- IC50 (HCT116; Homo sapiens, HCT-116, 72 h, read-out: HCT-116 viab. IC50, Table 2, basal, 72 h, Cell TiterGlo, non-adherent, 20 coded): 3.5 µM
- IC50 (HCT116; Homo sapiens, HCT-116, basal, read-out: Basal_Viability ATP HCT116): 3.5 µM
- IC50 (hGSK3b; read-out: GSK3b): > 20 µM
- IC50 (hJAK2; read-out: JAK2): > 20 µM
- EC50 (INS-1E cells; Rattus norvegicus, INS-1E; read-out: Ins. sec. EC50): > 10 µM

SMILES: COC(=O)Nc1nc2ccc(C(=O)C3CC3)cc2[nH]1 [Ciclobendazole]
- EC50 ([1]; Mus musculus, C2C12; read-out: Wnt Pathway): 0.349 µM
- IC50 (Colo320; Homo sapiens, basal, Colo 320, read-out: Basal_Viability ATP Colo 320): 0.156 µM
- IC50 (hp70S6K1 (RPS6KB1); kinase assay, read-out: p70S6K1): > 20 µM
- EC50 (HeLa cells; Homo sapiens, HeLa, S2 Table, HeLa, 20 = no response at highest concentration): 0.416 µM
- IC50 (HT-29; Homo sapiens; basal; HT-29; read-out: Basal_Viability ATP HT-29): 1.68 µM
- IC50 (SNU-C1; Homo sapiens, SNU-C1, basal, SNU-C1, read-out: Basal_Viability ATP SNU-C1): > 20 µM
- EC50 (NCI-H716 cells; Homo sapiens, NCI-H716; read-out: GLP 1 Secretion): > 10 µM
- IC50 (RKO; Homo sapiens; basal; RKO; read-out: Basal_Viability ATP RKO): 0.162 µM
- IC50 (SW480; Homo sapiens, SW480, basal, SW480, read-out: Basal_Viability ATP SW480): > 20 µM
- IC50 (hFLT3; kinase assay, read-out: FLT3): 6.14 µM
- IC50 (DLD-1; Homo sapiens, DLD-1, basal, DLD-1, read-out: Basal_Viability ATP DLD-1): 5.46 µM
- IC50 (hKDR; kinase assay, read-out: KDR): 15.1 µM
- IC50 ([3]; Homo sapiens; read-out: Anti-Angiogenesis): 1.19 µM
- IC50 (HCT116; Homo sapiens, HCT-116, basal, HCT116, read-out: Basal_Viability ATP HCT116): 0.174 µM
- IC50 (hGSK3b; kinase assay, read-out: GSK3b): 14.9 µM
- IC50 (hJAK2; kinase assay, read-out: JAK2): > 20 µM
- EC50 (INS-1E cells; Rattus norvegicus, INS-1E; read-out: Insulin Secretion): > 10 µM
